The target in one test is T1, BbPMI (Borreliella burgdorferi, UniProt O51368).
T1 construct: gene manA
Briefly: coupled PGI/G6PDH assay, NADPH at […] nm. It counts as biochemical.

Another test concerns the target type IV collagen (UniProt P02462 173-1669; P08572 184-1712). Put plainly: MST; BbPMI labeled with RED-NHS dye at constant 5 nM; serial dilutions of collagen IV or controls; PBS + 0.05% Tween-20; 15 minutes at RT; standard capillaries, 10% excitation, 40% MST power; T-Jump analysis. Particulars: both partners purified.

What is called IC50 is the concentration at which inhibition is half-maximal. A high value points to weaker potency. Consider `COc1ccc(-n2sc3ccc(F)cc3c2=O)cc1` [NCGC00871021-01], for which, on BbPMI, the IC50 was around 500 nM.

`Cc1ccc(C)c(-n2sc3cc(F)ccc3c2=O)c1` [MLS0315771, 2-(2,5-dimethylphenyl)-6-fluorobenzo[d]isothiazol-3(2H)-one] registered an IC50 against BbPMI of 600 to 900 nM.

In the case of `O=c1c2ccc(F)cc2sn1-c1ccccc1` [NCGC00871019-01], the IC50 on BbPMI was around 500 nM.

`Cc1ccc(C)c(-n2sc3ccc(F)cc3c2=O)c1` [NCGC00871020-01] gave a half-inhibitory concentration (IC50) at BbPMI of around 500 nM.

B1: recombinant BbPMI labeled with RED-NHS dye (BbPMI-NT647) (enzyme)
chain: MNNEDNIFLMKNNIKEYDWGGINFIPNLLGDKIDGKPKAEMWLGAHKTFSSKILYKNEYVLLSDFLEDHKELLGCNDEFPFLLKVLSANKPLSIQIHPSKDIALKGYESENNKGIDINDPKRTYKDKNPKIELIYALSDFYALKGFLPLDEIKKIYEILELNFDFQSHKDFVKTIFDLQMYELEKIIEKILKNLDLIDNFRGYWFNEIYNIYGIDVGLLVFLGMNILKLKPGEVVYTNSQEVHAYLKGDCIELMTNSDNVIRAGLTTKYIDKDEMLRVGQFEEGKLSFLNPDFQDNFSVFRLPNTNLKLIQKKINENICINRNSAMVLLVLNGCVSINKSLNLKKGESIFIGKKAENLFIDGDGEAFIAGFN
modifications: labeled using RED-NHS dye (NT647)
A word on the Kd: it is the constant that tells how readily two partners part at equilibrium. For the molecule B1, the Kd with type IV collagen came out at 128 ± 45.1 nM.

Values taken from paper PMC11898738 (mBio, 2025).
